Measurements as given in PubChem BioAssay AID248 (DTP/NCI, 2004).
Several values for one entry are separate records, joined by “and”; a condition that tells them apart may be missing. Equal values may be shown once. Inconclusive results and toxic doses are left out. Rule as the data show it: active = T/C of 150% or more; inactive = T/C below 125%.

System: L1210 leukemia ip in BDF1 mice, survival T/C
Assay: NCI In Vivo Anticancer Drug Screen. Data for tumor model L1210 Leukemia (intraperitoneal) in B6D2F1 (BDF1) mice
Conditions: endpoint: mean survival time, higher = longer survival
Outline: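 Tumor cells were implanted, animals were treated, and survival was followed. The result divides the treated measurement by the vehicle-control measurement.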

[1] = dose: 50.0 mg/kg/injection, schedule: Q04DX003 (ip), vehicle: saline with Tween-80
[2] = dose: 100.0 mg/kg/injection, schedule: Q04DX002 (ip), vehicle: saline with Tween-80
[3] = dose: 100.0 mg/kg/injection, schedule: Q04DX003 (ip), vehicle: saline with Tween-80
[4] = dose: 200.0 mg/kg/injection, schedule: Q01DX009 (ip), vehicle: saline with Tween-80
[5] = dose: 200.0 mg/kg/injection, schedule: Q04DX002 (ip), vehicle: saline with Tween-80
[6] = dose: 200.0 mg/kg/injection, schedule: Q04DX003 (ip), vehicle: saline with Tween-80
[7] = dose: 400.0 mg/kg/injection, schedule: Q01DX009 (ip), vehicle: saline with Tween-80
[8] = dose: 400.0 mg/kg/injection, schedule: Q04DX002 (ip), vehicle: saline with Tween-80
[9] = dose: 400.0 mg/kg/injection, schedule: Q04DX003 (ip), vehicle: saline with Tween-80
[10] = dose: 100.0 mg/kg/injection, schedule: Q04DX003 (ip), vehicle: Klucel (hydroxypropylcellulose) (HPC)
[11] = dose: 200.0 mg/kg/injection, schedule: Q04DX003 (ip), vehicle: Klucel (hydroxypropylcellulose) (HPC)
[12] = dose: 400.0 mg/kg/injection, schedule: Q04DX003 (ip), vehicle: Klucel (hydroxypropylcellulose) (HPC)

Measured: T/C

Cc1ccc(Cl)cc1NC(=O)Nc1cccc2ccc(O)cc12
inactive: [1] 102 % of control | dose: 100.0 mg/kg/injection, schedule: Q01DX001 (ip), vehicle: saline with Tween-80 95 % of control | dose: 100.0 mg/kg/injection, schedule: Q01DX009 (ip), vehicle: saline with Tween-80 95 % of control and 101 % of control | [2] 102 % of control and 90 % of control | [3] 96 % of control | dose: 200.0 mg/kg/injection, schedule: Q01DX001 (ip), vehicle: saline with Tween-80 97 % of control | [4] 88 % of control and 92 % of control | [5] 95 % of control and 91 % of control | [6] 91 % of control | dose: 400.0 mg/kg/injection, schedule: Q01DX001 (ip), vehicle: saline with Tween-80 101 % of control | [7] 95 % of control and 103 % of control | [8] 87 % of control and 90 % of control | [9] 96 % of control

O=c1[nH]c(=O)n(O)c2nc[nH]c12
inactive: [3] 92 % of control

Cc1cc(=O)cc(Nc2ccccc2)o1
inactive: dose: 100.0 mg/kg/injection, schedule: Q04DX002 (ip), vehicle: Klucel (hydroxypropylcellulose) (HPC) 93 % of control | dose: 200.0 mg/kg/injection, schedule: Q04DX002 (ip), vehicle: Klucel (hydroxypropylcellulose) (HPC) 90 % of control | dose: 400.0 mg/kg/injection, schedule: Q04DX002 (ip), vehicle: Klucel (hydroxypropylcellulose) (HPC) 101 % of control

CCCCC(CC)COP(OCC(CC)CCCC)OCC(CC)CCCC (stereo not given)
inactive: [3] 96 % of control | [6] 100 % of control | [9] 96 % of control

c1ccc2cc(SCN3CCOCC3)ccc2c1
inactive: [10] 97 % of control | [11] 101 % of control | [12] 97 % of control

COc1cc(OC)c(NC(=O)Nc2cccc(Cl)c2C)cc1Cl
inactive: dose: 12.5 mg/kg/injection, schedule: Q01DX009 (ip), vehicle: saline with Tween-80 97 % of control and 92 % of control | dose: 25.0 mg/kg/injection, schedule: Q01DX009 (ip), vehicle: saline with Tween-80 94 % of control and 95 % of control | dose: 25.0 mg/kg/injection, schedule: Q04DX003 (ip), vehicle: saline with Tween-80 89 % of control | dose: 50.0 mg/kg/injection, schedule: Q01DX009 (ip), vehicle: saline with Tween-80 95 % of control and 87 % of control | [1] 97 % of control | [2] 86 % of control and 91 % of control | [3] 92 % of control | [4] 89 % of control and 91 % of control | [5] 87 % of control and 90 % of control | [7] 96 % of control and 91 % of control | [8] 104 % of control and 91 % of control

CN1C2CCCCC1C1CCCCC2[N+]1(C)C
inactive: dose: 75.0 mg/kg/injection, schedule: Q01DX001 (ip), vehicle: saline 96 % of control

O=C(Nc1ccc(Cl)cc1)Nc1ncn[nH]1
inactive: dose: 75.0 mg/kg/injection, schedule: Q01DX001 (ip), vehicle: carboxymethylcellulose (CMC) 101 % of control | dose: 150.0 mg/kg/injection, schedule: Q01DX001 (ip), vehicle: carboxymethylcellulose (CMC) 97 % of control | dose: 300.0 mg/kg/injection, schedule: Q01DX001 (ip), vehicle: carboxymethylcellulose (CMC) 95 % of control

O=C1C=CC(=O)N1Nc1ccccc1
inactive: [10] 100 % of control | [11] 102 % of control | [12] 97 % of control

O=C(O)c1cc2ccccc2[nH]1
inactive: [3] 95 % of control | [6] 95 % of control | [9] 90 % of control

O/N=c1/cc(-c2cccs2)ss1
inactive: dose: 50.0 mg/kg/injection, schedule: Q01DX009 (ip), vehicle: saline 86 % of control | dose: 100.0 mg/kg/injection, schedule: Q01DX009 (ip), vehicle: saline 86 % of control | dose: 100.0 mg/kg/injection, schedule: Q04DX003 (ip), vehicle: saline 87 % of control | dose: 200.0 mg/kg/injection, schedule: Q01DX009 (ip), vehicle: saline 98 % of control | dose: 200.0 mg/kg/injection, schedule: Q04DX003 (ip), vehicle: saline 95 % of control | dose: 400.0 mg/kg/injection, schedule: Q04DX003 (ip), vehicle: saline 95 % of control
